Test results: the NIST ThermoML archive (doi:10.1016/j.tca.2015.07.018)
± gives the expanded uncertainty stated by the source.

Conditions: for Triple point temperature: From the change of vapor pressure slope; for vapor or sublimation pressure: Crystal, Rate of evaporation

Row | Triple point temperature (Crystal 1) | Triple point temperature (Crystal 2) | vapor or sublimation pressure (570 K) | vapor or sublimation pressure (580 K) | vapor or sublimation pressure (590 K) | vapor or sublimation pressure (600 K) | vapor or sublimation pressure (610 K) | vapor or sublimation pressure (620 K) | vapor or sublimation pressure (630 K) | vapor or sublimation pressure (640 K) | Compound
1 | 701 ± 6 K | 688 ± 6 K | – | – | – | – | – | – | – | – | [Cl][Cu] [copper monochloride]
2 | – | – | 0.004417 ± 0.00044 kPa | 0.007462 ± 0.00075 kPa | 0.01238 ± 0.0012 kPa | 0.02021 ± 0.002 kPa | 0.03245 ± 0.0032 kPa | 0.05132 ± 0.0051 kPa | 0.07998 ± 0.008 kPa | 0.1229 ± 0.012 kPa | [Cl-].[Cl-].[Cl-].[In+3] [indium chloride]
